Data reported in PMC5701137, “Discovery of novel choline acetyltransferase inhibitors using structure-based virtual screening” (Scientific Reports, 2017).
Where “and” joins values, the source holds several entries; their conditions need not be identical. Equal entries are not always repeated.

Experiments:
human rChAT [1] = biological target: T1, human rChAT (Homo sapiens, UniProt P28329); assay: In vitro ChAT activity inhibition fluorometric assay and kinetic studies; assay type: biochemical; conditions: for inhibition at 100 µM: read-out: ChAT % IR (inhibition rate)
T1 construct: made in house; host or cells: E. coli BL21 Rosetta2
T1 sequence (P28329 1-630 isoform P28329-3): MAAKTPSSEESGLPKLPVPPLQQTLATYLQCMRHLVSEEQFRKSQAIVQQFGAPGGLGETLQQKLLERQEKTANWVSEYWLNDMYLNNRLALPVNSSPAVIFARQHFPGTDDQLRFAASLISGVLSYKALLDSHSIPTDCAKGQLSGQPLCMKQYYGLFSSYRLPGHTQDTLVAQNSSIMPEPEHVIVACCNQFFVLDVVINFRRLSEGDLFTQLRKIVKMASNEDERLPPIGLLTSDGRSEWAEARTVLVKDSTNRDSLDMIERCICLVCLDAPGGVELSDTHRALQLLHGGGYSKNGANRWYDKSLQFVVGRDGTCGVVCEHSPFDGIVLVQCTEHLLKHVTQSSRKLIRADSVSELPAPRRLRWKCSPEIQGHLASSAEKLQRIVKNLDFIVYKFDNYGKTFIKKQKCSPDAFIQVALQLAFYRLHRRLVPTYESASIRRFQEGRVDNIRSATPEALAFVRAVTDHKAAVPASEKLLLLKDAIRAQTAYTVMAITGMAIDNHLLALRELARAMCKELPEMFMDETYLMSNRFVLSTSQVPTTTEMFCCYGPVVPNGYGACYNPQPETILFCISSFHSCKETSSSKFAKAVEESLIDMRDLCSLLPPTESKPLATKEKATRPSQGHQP
Protocol: ChAT activity was measured using our newly developed fluorometric assay, using human recombinant ChAT (rChAT) protein. The reagents, choline chloride, acetyl coenzyme-A (ACoA, A2181) and 7-Diethylamino-3-(4-maleimidophenyl)-4-methylcoumarin (CPM) were purchased from Sigma-Aldrich (St. Louis, MO, USA).
The ChAT assay could be run in either 96-well or 384-well plates. For 96-well plates, 50 μL/well of 0.212 µg/ml (final concentration) of the recombinant ChAT was incubated with 100 μM different Asinex compounds (50 μL/well) for 10–30 minutes at room temperature in dilution buffer (10 mM Tris-HCl, pH 7.4, 150 mM NaCl, 1.0 mM EDTA, 0.05% (v/v) Triton X-100). Then, 50 µL of a cocktail-A [dilution buffer containing choline chloride (final concentration 150 µM), ACoA (final concentration 13.3 µM) and CPM (final concentration 15 µM)] was added to each well. Immediately after adding the cocktail-A, the changes in fluorescence was monitored kinetically at 479 nm after exciting at 390 nm at 1–2 minute intervals for 15–20 minutes using a microplate spectrophotometer reader (Infinite M1000, Tecan).
Each Asinex compounds were run in triplicates. On each 96-wells plate, several enzyme wells without inhibitor were also included during measurements as control and for estimating the inhibition level. Negative controls were wells without enzyme. The percentage inhibition for each Asinex compound was calculated based on the enzyme control value as a reference (100% activity). The compounds showing over 50% inhibition of enzyme activity were selected for further kinetic studies.
(§1) For kinetic studies, a similar protocol as inhibition assay was followed; a dilution series of five different concentrations ranging from 10^−6 to 10^−9 M were prepared for each selected Asinex compounds. For ChAT, the A-CoA was kept constant at 10 μM (final) but the concentration of choline chloride varied between 320–10 μM. For BuChE, BTC was used as the substrate in the concentrations ranging from 0.0625 to 2 mM. For AChE, ATC was used as the substrate in the concentrations ranging from 0.0312 to 1 mM. Each compound concentration was measured in duplicates. The rate of enzyme activity (as ∆OD/hr kinetic data) was calculated and processed using the GraphPad Prism 7 analysis software. The inhibitory constant (Ki) values were determined from the dose-response curve and the half-maximal inhibitory concentration (IC50) values were calculated by plotting the percentage enzyme activity vs. the log of the Asinex compound concentrations and fitting the data using the nonlinear regression Enzyme Kinetics-Inhibition function.
The Michaelis-Menten constant (Km) and maximal velocity (Vmax) values were calculated from substrate-velocity curve after fitting the data with non-linear regression Michaelis-Menten kinetic function. The Km and Vmax values were further used to plot the Lineweaver-Burk plots; the plots were fitted using linear regression function.

recombinant human AChE = biological target: T2, recombinant human AChE (Homo sapiens, UniProt P22303); assay: Modified Ellman's colorimetric assay for AChE and kinetic studies; assay type: biochemical; conditions: for inhibition at 200 µM: read-out: AChE % IR (inhibition rate); for Ki / IC50: mean of two experiments; for IC50: substrate ATC 0.5 mM
T2 construct: purchased Sigma C1682
Source text: (§2) A modified version of Ellman’s colorimetric assay[16],[17] was adapted to a high throughput assay for the enzymatic activity of BuChE and AChE. The reagent, butyrylthiocholine iodide (BTC), acetylthiocholine iodide (ATC), 5,5′-dithiobis (2-nitrobenzoic acid) (DTNB) were purchased from Sigma-Aldrich (St. Louis, MO, USA). The modified assay details are as previously described[34],[35]. The main modification concerned with the high throughput adaptation of the assay for use in 384-well plates. Briefly, 25 μL/well of a 1:450 diluted solution of a pooled human plasma and 1:768 diluted (3.5 ng/ml final concentration) purified recombinant human AChE protein (Sigma, Cat no. C1682) was used for measurement of BuChE and AChE activity, respectively. In the initial in vitro screening step, the wells were pre-incubated with 25 μL/wells of different Asinex compounds for 10–30 minutes at room temperature. The concentration of the compounds working solution was 3X to give a final concentration of 200 μM in a final volume of 75 μL in each well. The stock concentration of the compounds were prepared in 100% DMSO. The stock concentration was chosen usually at 10 mM, allowing the final DMSO concentration in the wells to be less than 4%. Finally, 25 μL of a cocktail mix prepared in Na/K phosphate buffer, containing DTNB (final concentration 0.4 mM) and BTC, (final concentration 1 mM) or ATC (final concentration 0.5 mM) was added to each well and the changes in absorbance was monitored at 412 nm wavelength for 15–20 minutes with one-minute interval, using a microplate spectrophotometer reader (Infinite M1000, Tecan). The rate of the enzyme activity was determined from the linear part of the kinetic reaction curves as ∆OD/time.
as §1

plasma BuChE = biological target: T3, plasma BuChE (Homo sapiens, UniProt P06276); assay: Modified Ellman's colorimetric assay for BuChE (pooled human plasma) and kinetic studies; assay type: biochemical; conditions: for inhibition at 200 µM: read-out: BuChE % IR (inhibition rate)
T3 construct: 1:450 diluted solution of a pooled human plasma; from tissue; host or cells: pooled human plasma
Source text: as §2, §1

HEK 293 cells = assay: MTT cell viability assay; assay type: cell-based; conditions: overnight, control cells 100%, mean ± SD of 3 readings
Protocol: Finally, to assess the prospective of the identified compounds for further development into ChAT ligands, we assessed the compounds active against ChAT, AChE and BuChE, for their cellular toxicity on human embryonic kidney (HEK 293) cells using the cell viability 3-(4,5-dimethylthiazol-2-yl)-2,5-diphenyltetrazolium bromide (MTT) assay. All compounds were evaluated at 10 and 50 µM concentrations. The cell viability data is given in Table 4 (also represented as a bar chart in Fig. 9).
The in vitro cellular toxicity of the active compounds was evaluated using MTT assay. Briefly, Human embryonic kidney epithelial (HEK-293) cells cultured at 37 °C in a humidified environment with 5% CO2 in Dulbecco’s Modified Eagle’s medium (DMEM) in 96 well plate to obtain 70–80% confluency. Further, the cells were incubated overnight at 37 °C with 10 µM and 50 µM compounds in triplicate. Cells treated with 1% DMSO were used as controls. At the end of the treatment (12 h), 10 μL of 12 mM MTT dissolved in Phosphate buffer saline pH 7.4, was added to each well and incubated for an additional 2 h at 37 °C. The media was then removed from the plate and 100 µL of DMSO was added to dissolve the violet formazan crystals. Finally, the absorbance was measured at 540 nm with a reference wavelength of 630 nm on Tecan spectrophotometer with shaking before the reading. The percentage viability was calculated taking 1% DMSO control as 100 percent and presented as mean ± SD.

human rChAT [2] = biological target: T1, human rChAT; assay: In vitro ChAT activity inhibition fluorometric assay and kinetic studies; assay type: biochemical; conditions: mean ± SEM of two experiments
ChAT = test system: ChAT; design: method as in PMID 27507101; conditions: as previously reported by our group ref 26; cited from earlier work
[3] = 100 µM compound, compared to control, mean of three experiments in triplicate
[4] = 200 µM compound, compared to control, mean of three experiments in triplicate
[5] = substrate BTC 1 mM, mean of two experiments
[6] = Lineweaver-Burk plot and nonlinear regression fit
[7] = 200 µM compound, compared to control, mean of three experiments in triplicate, 200 µM

T3 sequence (P06276 29-602): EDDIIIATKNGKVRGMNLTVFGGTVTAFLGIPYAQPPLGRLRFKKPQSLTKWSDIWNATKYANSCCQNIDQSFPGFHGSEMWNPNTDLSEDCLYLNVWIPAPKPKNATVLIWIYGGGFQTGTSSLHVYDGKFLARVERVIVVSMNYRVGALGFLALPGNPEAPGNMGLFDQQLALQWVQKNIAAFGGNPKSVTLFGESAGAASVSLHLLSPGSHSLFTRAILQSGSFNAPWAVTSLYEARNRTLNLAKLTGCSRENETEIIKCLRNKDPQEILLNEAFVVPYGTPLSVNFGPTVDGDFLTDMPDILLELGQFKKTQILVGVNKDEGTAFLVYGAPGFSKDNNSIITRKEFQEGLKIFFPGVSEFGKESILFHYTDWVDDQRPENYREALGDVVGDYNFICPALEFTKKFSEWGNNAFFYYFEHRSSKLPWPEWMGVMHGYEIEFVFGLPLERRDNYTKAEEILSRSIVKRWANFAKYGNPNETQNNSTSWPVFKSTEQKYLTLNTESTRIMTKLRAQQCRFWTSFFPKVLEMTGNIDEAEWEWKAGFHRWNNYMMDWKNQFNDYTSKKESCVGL
T2 sequence (P22303 32-614): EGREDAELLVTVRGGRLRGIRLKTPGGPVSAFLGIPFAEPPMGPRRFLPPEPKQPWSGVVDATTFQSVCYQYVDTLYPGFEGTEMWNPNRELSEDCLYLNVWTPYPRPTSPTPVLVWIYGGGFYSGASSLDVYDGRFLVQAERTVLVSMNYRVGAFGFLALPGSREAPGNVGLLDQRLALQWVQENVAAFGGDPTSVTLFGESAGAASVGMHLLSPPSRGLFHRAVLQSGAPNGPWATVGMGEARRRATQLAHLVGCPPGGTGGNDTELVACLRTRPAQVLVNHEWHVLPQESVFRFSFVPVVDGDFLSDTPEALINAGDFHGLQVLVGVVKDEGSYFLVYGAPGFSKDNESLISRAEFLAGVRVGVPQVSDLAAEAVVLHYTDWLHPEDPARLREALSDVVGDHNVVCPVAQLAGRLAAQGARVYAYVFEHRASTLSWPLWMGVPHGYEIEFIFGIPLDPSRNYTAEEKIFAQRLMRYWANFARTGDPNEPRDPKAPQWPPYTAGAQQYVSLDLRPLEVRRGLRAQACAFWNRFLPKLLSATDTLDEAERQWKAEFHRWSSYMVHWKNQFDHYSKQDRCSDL

Row | Structure (SMILES) | inhibition at 100 µM (human rChAT [1]; [3]) [%] | inhibition at 200 µM (recombinant human AChE; [4]) [%] | inhibition at 200 µM (plasma BuChE; [4]) [%] | Ki (plasma BuChE; mean of two experiments) [µM] | IC50 (plasma BuChE; [5]) | % of cell proliferation (HEK 293 cells; 10 µM) [%] | % of cell proliferation (HEK 293 cells; 50 µM) [%] | Ki (recombinant human AChE) [µM] | IC50 (recombinant human AChE) | other results
1 | O=C(NC1CCCC1)c1ccc(CN2CCN(Cc3ccccc3)CC2)cc1 [Compound A2] | 6.9 | 0 | > 50 | 84.9 | 527 µM | 62.1 ± 4.0 | 72.2 ± 13.1 |  |  | 
2 | CCc1ccc2[nH]c3nc(SCCC(=O)N4CCCCCC4)nnc3c2c1 [Compound B1] |  | 9 | 15 |  |  |  |  |  |  | mode of inhibition of human rChAT (human rChAT [1]; [6]): mixed-model inhibition; Vmax of rChAT (human rChAT [1]; inhibitor 0.4 µM, mean ± SEM of two experiments): 247.3 ± 17.8 µM/min; Ki (human rChAT [1]; mean of two experiments): ~9.4 µM and 9.4 µM; IC50 (human rChAT [1]; substrate concentrations 20 to 80 µM, mean of two experiments): ~7 µM and 7 µM; AChE % IR (inhibition rate) (recombinant human AChE; [7]): 9.1%; BuChE % IR (inhibition rate) (plasma BuChE; [7]): 14.8%; Vmax of rChAT (human rChAT [2]; inhibitor 2.0 µM): 189.6 ± 17.3 µM/min; Vmax of rChAT (human rChAT [2]; inhibitor 10.0 µM): 154.3 ± 13.4 µM/min; Vmax of rChAT (human rChAT [2]; inhibitor 50.0 µM): 73.5 ± 9.7 µM/min; Vmax of rChAT (human rChAT [2]; inhibitor 250.0 µM): 54.9 ± 6.8 µM/min
3 | CCn1c(CNC(=O)COc2ccccc2F)cc2ccccc21 [Compound C2] | 0 | 0 |  | 59.6 | ~365 µM and 365 µM | 87.7 ± 5.0 | 76.2 ± 7.6 |  |  | mode of inhibition of BuChE (plasma BuChE; Lineweaver-Burk plot and nonlinear regression analysis): competitive mode of inhibition
4 | CCn1c(CNC(=O)COc2ccc(F)cc2)cc2ccccc21 [Compound C4] | 0 | 4.9 | > 50 | 59.4 | 528 µM | 82.4 ± 4.5 | 84.0 ± 10.0 |  |  | 
5 | O=C(NCc1ccc(CN2CCCCC2)cc1)c1nc(-c2ccc(C(F)(F)F)cc2)no1 [Compound C5] | 0 |  | > 50 |  |  | 78.9 ± 3.3 | 36.1 ± 2.4 | 23.7 | ~6.3 µM and 6.3 µM | mode of inhibition of AChE (recombinant human AChE; [6]): non-competitive mode of inhibition; BuChE IC50 (plasma BuChE; [5]): could not be calculated due to lack of complete inhibition even at the highest tested concentration of 300 µM
6 | CCN(CC)C(=O)c1cccc(Nc2ccc(-c3ccccc3OC)nn2)c1 [Compound D3] | 0 | > 50 | 20.7 |  |  | 79.2 ± 2.5 | 66.2 ± 4.0 | 177 | 251 µM | 
7 | COc1cc(CN2CCN(Cc3ccccc3Cl)CC2)c([N+](=O)[O-])cc1OC [Compound D4] | 3.5 |  | 18.2 |  |  | 84.0 ± 3.8 | 68.1 ± 1.4 | 141 | 146 µM | 
8 | C[N+](C)(C)CCC(=O)c1cccc2ccccc12.[I-] [α-NETA, 2-(alpha-naphthoyl)ethyltrimethylammonium iodide, reference compound] | 93 |  |  |  |  |  |  |  |  | ChAT % IR (inhibition rate) (human rChAT [1]; 100 µM compound, compared to control, mean of three experiments in triplicate, 100 µM): 93.7%; IC50 (ChAT): 0.1 µM
